ChEMBL document CHEMBL5303573, “Mapping human microbiome drug metabolism by gut bacteria and their genes” (Nature, 2019)

How the values were obtained:
[1] = akkermansia muciniphila, 12 h, 2 µM
Description: The drug is tested on Akkermansia muciniphila strain: ATCC BAA-835 for biotransformation. The drug concentrations were measured before and after a 12-h incubation by liquid-chromatography-coupled mass spectrometry (LC–MS)

[2] = The drug is tested on Dorea formicigenerans strain: ATCC27755 for biotransformation. The drug concentrations were measured before and after a 12-h incubation by liquid-chromatography-coupled mass spectrometry (LC–MS); settings: 2 µM
[3] = The drug is tested on Coprococcus comes strain: ATCC27758 for biotransformation. The drug concentrations were measured before and after a 12-h incubation by liquid-chromatography-coupled mass spectrometry (LC–MS); assay type: ADME; parameters: dose 2 uM, timepoint 0 vs 12 hours; settings: 2 µM
[4] = The drug is tested on Clostridium symbiosum strain: ATCC14940 for biotransformation. The drug concentrations were measured before and after a 12-h incubation by liquid-chromatography-coupled mass spectrometry (LC–MS); settings: 2 µM
[5] = bacteroides fragilis, 12 h, 2 µM
Description: The drug is tested on Bacteroides fragilis strain: NCTC 9343 for biotransformation. The drug concentrations were measured before and after a 12-h incubation by liquid-chromatography-coupled mass spectrometry (LC–MS)

[6] = The drug is tested on Edwardsiella tarda strain: ATCC23685 for biotransformation. The drug concentrations were measured before and after a 12-h incubation by liquid-chromatography-coupled mass spectrometry (LC–MS); settings: 2 µM
[7] = bacteroides stercoris, 12 h, 2 µM
Description: The drug is tested on Bacteroides stercoris strain: ATCC43183 for biotransformation. The drug concentrations were measured before and after a 12-h incubation by liquid-chromatography-coupled mass spectrometry (LC–MS)

[8] = The drug is tested on Bacteroides fragilis strain: HMW615 for biotransformation. The drug concentrations were measured before and after a 12-h incubation by liquid-chromatography-coupled mass spectrometry (LC–MS); settings: 2 µM
[9] = The drug is tested on Anaerococcus hydrogenalis strain: DSM7454 for biotransformation. The drug concentrations were measured before and after a 12-h incubation by liquid-chromatography-coupled mass spectrometry (LC–MS); settings: 2 µM
[10] = The drug is tested on Eubacterium hallii strain: DSM3353 for biotransformation. The drug concentrations were measured before and after a 12-h incubation by liquid-chromatography-coupled mass spectrometry (LC–MS); settings: anaerobutyricum hallii, 2 µM
[11] = The drug is tested on Clostridium scindens strain: ATCC35704 for biotransformation. The drug concentrations were measured before and after a 12-h incubation by liquid-chromatography-coupled mass spectrometry (LC–MS); settings: 2 µM
[12] = The drug is tested on Clostridium asparagiforme strain: DSM15981 for biotransformation. The drug concentrations were measured before and after a 12-h incubation by liquid-chromatography-coupled mass spectrometry (LC–MS); assay type: ADME; parameters: dose 2 uM, timepoint 0 vs 12 hours; settings: enterocloster asparagiformis, 2 µM
[13] = The drug is tested on Blautia luti strain: DSM14534 for biotransformation. The drug concentrations were measured before and after a 12-h incubation by liquid-chromatography-coupled mass spectrometry (LC–MS); assay type: ADME; parameters: dose 2 uM, timepoint 0 vs 12 hours; settings: 2 µM
[14] = The drug is tested on Odoribacter splanchnicus strain: fecal isolate for biotransformation. The drug concentrations were measured before and after a 12-h incubation by liquid-chromatography-coupled mass spectrometry (LC–MS); settings: 2 µM
[15] = The drug is tested on Ruminococcus gnavus strain: ATCC29149 for biotransformation. The drug concentrations were measured before and after a 12-h incubation by liquid-chromatography-coupled mass spectrometry (LC–MS); settings: mediterraneibacter gnavus, 2 µM
[16] = The drug is tested on Collinsella intestinalis strain: DSM13280 for biotransformation. The drug concentrations were measured before and after a 12-h incubation by liquid-chromatography-coupled mass spectrometry (LC–MS); settings: 2 µM
[17] = The drug is tested on Providencia rettgeri strain: DSM1131 for biotransformation. The drug concentrations were measured before and after a 12-h incubation by liquid-chromatography-coupled mass spectrometry (LC–MS); assay type: ADME; parameters: dose 2 uM, timepoint 0 vs 12 hours; settings: 2 µM
[18] = The drug is tested on Ruminococcus lactaris strain: ATCC29176 for biotransformation. The drug concentrations were measured before and after a 12-h incubation by liquid-chromatography-coupled mass spectrometry (LC–MS); settings: 2 µM
[19] = segatella copri, 12 h, 2 µM
Description: The drug is tested on Prevotella copri strain: DSM18205 for biotransformation. The drug concentrations were measured before and after a 12-h incubation by liquid-chromatography-coupled mass spectrometry (LC–MS)

[20] = The drug is tested on Bacteroides fragilis strain: ATCC43859 for biotransformation. The drug concentrations were measured before and after a 12-h incubation by liquid-chromatography-coupled mass spectrometry (LC–MS); settings: 2 µM

SMILES | Bacterial Biotransformation [1] | Bacterial Biotransformation [2] | Bacterial Biotransformation [3] | Bacterial Biotransformation [4] | Bacterial Biotransformation [5] | Bacterial Biotransformation [6] | Bacterial Biotransformation [7] | Bacterial Biotransformation [8] | Bacterial Biotransformation [9] | Bacterial Biotransformation [10] | Bacterial Biotransformation [11] | Bacterial Biotransformation [12] | Bacterial Biotransformation [13] | Bacterial Biotransformation [14] | Bacterial Biotransformation [15] | Bacterial Biotransformation [16] | Bacterial Biotransformation [17] | Bacterial Biotransformation [18] | Bacterial Biotransformation [19] | Bacterial Biotransformation [20]
CC12CC3CC(C)(C1)CC(N)(C3)C2 [MEMANTINE] | Compound NOT metabolized | Compound NOT metabolized | Compound NOT metabolized | Compound NOT metabolized | Compound NOT metabolized | Compound NOT metabolized | Compound NOT metabolized | Compound NOT metabolized | Compound NOT metabolized | Compound NOT metabolized | Compound NOT metabolized | Compound NOT metabolized | Compound NOT metabolized | Compound NOT metabolized | Compound NOT metabolized | Compound NOT metabolized |  |  |  | 
CCCCC(=O)O[C@]1(C(=O)CO)[C@@H](C)C[C@H]2[C@@H]3CCC4=CC(=O)C=C[C@]4(C)[C@@]3(F)[C@@H](O)C[C@@]21C [BETAMETHASONE VALERATE] |  | Compound NOT metabolized | Compound metabolized | Compound NOT metabolized | Compound metabolized | Compound NOT metabolized | Compound metabolized | Compound metabolized | Compound NOT metabolized |  | Compound metabolized | Compound NOT metabolized |  | Compound metabolized |  | Compound NOT metabolized | Compound NOT metabolized | Compound NOT metabolized | Compound NOT metabolized | 
O=C(NC(Cc1cc(=O)[nH]c2ccccc12)C(=O)O)c1ccc(Cl)cc1 (configuration not stated) [REBAMIPIDE] | Compound NOT metabolized | Compound NOT metabolized | Compound NOT metabolized | Compound NOT metabolized | Compound NOT metabolized | Compound NOT metabolized | Compound NOT metabolized | Compound metabolized | Compound NOT metabolized | Compound NOT metabolized | Compound NOT metabolized | Compound NOT metabolized | Compound NOT metabolized | Compound NOT metabolized | Compound NOT metabolized | Compound NOT metabolized | Compound NOT metabolized | Compound NOT metabolized | Compound NOT metabolized | 
CC(C)(C)NC[C@H](O)COc1ccccc1C1CCCC1.CC(C)(C)NC[C@H](O)COc1ccccc1C1CCCC1.O=S(=O)(O)O [PENBUTOLOL SULFATE] |  | Compound NOT metabolized | Compound NOT metabolized | Compound NOT metabolized | Compound NOT metabolized | Compound NOT metabolized | Compound NOT metabolized | Compound NOT metabolized | Compound NOT metabolized | Compound NOT metabolized | Compound NOT metabolized | Compound NOT metabolized | Compound NOT metabolized | Compound NOT metabolized | Compound NOT metabolized | Compound NOT metabolized |  | Compound NOT metabolized |  | 
Cc1ccc(/C(=C\CN2CCCC2)c2ccccn2)cc1 [TRIPROLIDINE] | Compound NOT metabolized | Compound NOT metabolized |  | Compound NOT metabolized | Compound NOT metabolized | Compound NOT metabolized | Compound NOT metabolized | Compound NOT metabolized | Compound NOT metabolized | Compound NOT metabolized | Compound NOT metabolized |  | Compound NOT metabolized | Compound NOT metabolized | Compound NOT metabolized | Compound NOT metabolized | Compound NOT metabolized | Compound NOT metabolized | Compound NOT metabolized | Compound NOT metabolized
CCN(CC)CCNC(=O)c1cc(S(C)(=O)=O)ccc1OC [TIAPRIDE] | Compound NOT metabolized | Compound NOT metabolized | Compound NOT metabolized | Compound NOT metabolized | Compound NOT metabolized | Compound NOT metabolized |  | Compound NOT metabolized | Compound NOT metabolized | Compound NOT metabolized | Compound NOT metabolized |  | Compound NOT metabolized | Compound NOT metabolized | Compound NOT metabolized | Compound NOT metabolized | Compound NOT metabolized | Compound NOT metabolized |  | Compound NOT metabolized
CCCCC(=O)N(Cc1ccc(-c2ccccc2-c2nnn[nH]2)cc1)[C@H](C(=O)O)C(C)C | Compound NOT metabolized | Compound NOT metabolized | Compound NOT metabolized | Compound NOT metabolized | Compound NOT metabolized | Compound NOT metabolized | Compound NOT metabolized | Compound metabolized | Compound NOT metabolized | Compound NOT metabolized | Compound NOT metabolized |  |  | Compound metabolized | Compound NOT metabolized | Compound NOT metabolized | Compound NOT metabolized | Compound NOT metabolized | Compound NOT metabolized | Compound metabolized
CN(C)C(=O)C(CCN1CCC(O)(c2ccc(Cl)cc2)CC1)(c1ccccc1)c1ccccc1 [LOPERAMIDE] |  | Compound NOT metabolized |  | Compound NOT metabolized | Compound metabolized | Compound NOT metabolized | Compound metabolized | Compound NOT metabolized | Compound NOT metabolized | Compound NOT metabolized | Compound NOT metabolized | Compound NOT metabolized | Compound NOT metabolized | Compound metabolized | Compound NOT metabolized |  | Compound metabolized | Compound NOT metabolized |  | 
COc1ccc(/C=C/C(=O)Nc2ccccc2C(=O)O)cc1OC | Compound NOT metabolized | Compound NOT metabolized | Compound NOT metabolized | Compound NOT metabolized |  | Compound NOT metabolized | Compound NOT metabolized | Compound NOT metabolized | Compound metabolized | Compound NOT metabolized | Compound NOT metabolized |  | Compound NOT metabolized | Compound NOT metabolized | Compound NOT metabolized | Compound NOT metabolized | Compound NOT metabolized | Compound NOT metabolized | Compound metabolized | Compound NOT metabolized
